assay: method code SF-AS, from DOI: 10.1080/02772240109358997

Compound | logP
CC(C)OC(=O)C(=Cc1ccccc1)S(=O)(=O)c1ccc(Cl)cc1 | 4.18
COC(=O)C(C)(C)S(=O)(=O)c1ccc([N+](=O)[O-])cc1 | 1.38
CC(C(=O)OC1CCCCC1)S(=O)(=O)c1ccc([N+](=O)[O-])cc1 (stereo not drawn) | 2.82
COC(=O)C(C)S(=O)(=O)c1ccc([N+](=O)[O-])cc1 (stereo not drawn) | 1.06
C=CCC(C)(C(=O)OCC)S(=O)(=O)c1ccc([N+](=O)[O-])cc1 (stereo not drawn) | 2.3
CCOC(=O)CC(CC(=O)OCC)(C(=O)OC(C)C)S(=O)(=O)c1ccc([N+](=O)[O-])cc1 | 3.56
Cc1ccc(S(=O)(=O)C(=Cc2ccccc2)C(=O)OC(C)C)cc1 | 3.92
COC(=O)C(=Cc1ccccc1)S(=O)(=O)c1ccc([N+](=O)[O-])cc1 | 2.9

More lines, now with the values ahead:

logP | Compound
4.4 | CCOC(=O)C(C)(c1cccc2ccccc12)S(=O)(=O)c1ccc([N+](=O)[O-])cc1 (stereo not drawn)
2.18 | CC(C)OC(=O)CC(C(=O)OC(C)C)S(=O)(=O)c1ccc([N+](=O)[O-])cc1 (stereo not drawn)
1.4 | CCOC(=O)CC(C(=O)OC)S(=O)(=O)c1ccc([N+](=O)[O-])cc1 (stereo not drawn)
3.4 | CCOC(=O)C(Cc1ccccc1)(Cc1ccccc1)S(=O)(=O)c1ccc([N+](=O)[O-])cc1
3.2 | CCOC(=O)C(=Cc1ccccc1)S(=O)(=O)c1ccc([N+](=O)[O-])cc1
4.06 | CCCCC(CCCC)(C(=O)OC(C)C)S(=O)(=O)c1ccc([N+](=O)[O-])cc1
2.24 | CCC(CC)(C(=O)OC)S(=O)(=O)c1ccc([N+](=O)[O-])cc1
3.81 | CCCCC(CCCC)(C(=O)OCC)S(=O)(=O)c1ccc([N+](=O)[O-])cc1
3.62 | CC(C)OC(=O)C(=Cc1ccccc1)S(=O)(=O)c1ccc([N+](=O)[O-])cc1
3.68 | CC(C)COC(=O)C(=Cc1ccccc1)S(=O)(=O)c1ccc([N+](=O)[O-])cc1
